# Experimental data: PubChem BioAssay (NCI)
#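 Protocol summary: plate cells (96-well), add compound at 5 concentrations, incubate 48 h, interpolate endpoints linearly. GI50 = concentration required for 50% inhibition of growth. At the TGI there is no net growth.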
# Legend:
# Assay in all cases: NCI tumour cell line growth inhibition, 48 h
# 786-0 renal = system: 786-0 renal
# A498 renal = system: A498 renal
# A549 NSCLC = system: A549 NSCLC
# ACHN renal = system: ACHN renal
# BT-549 breast = system: BT-549 breast
# CAKI-1 renal = system: CAKI-1 renal
# CCRF-CEM leukemia = system: CCRF-CEM leukemia
# COLO 205 colon = system: COLO 205 colon
# DU-145 prostate = system: DU-145 prostate
# EKVX NSCLC = system: EKVX NSCLC
# HCC-2998 colon = system: HCC-2998 colon
# HCT-116 colon = system: HCT-116 colon
# HCT-15 colon = system: HCT-15 colon
# HL-60(TB) leukemia = system: HL-60(TB) leukemia
# HOP-62 NSCLC = system: HOP-62 NSCLC
# HOP-92 NSCLC = system: HOP-92 NSCLC
# HS 578T breast = system: HS 578T breast
# HT29 colon = system: HT29 colon
# IGROV1 ovarian = system: IGROV1 ovarian
# K-562 leukemia = system: K-562 leukemia
# KM12 colon = system: KM12 colon
# LOX IMVI melanoma = system: LOX IMVI melanoma
# M14 melanoma = system: M14 melanoma
# MALME-3M melanoma = system: MALME-3M melanoma
# MCF7 breast = system: MCF7 breast
# MDA-MB-231 breast = system: MDA-MB-231 breast
# MDA-MB-435 = system: MDA-MB-435
# MOLT-4 leukemia = system: MOLT-4 leukemia
# NCI-H226 lung = system: NCI-H226 lung
# NCI-H23 lung = system: NCI-H23 lung
# NCI-H460 lung = system: NCI-H460 lung
# NCI-H522 lung = system: NCI-H522 lung
# NCI/ADR-RES ovarian = system: NCI/ADR-RES ovarian
# OVCAR-3 ovarian = system: OVCAR-3 ovarian
# OVCAR-4 ovarian = system: OVCAR-4 ovarian
# OVCAR-5 ovarian = system: OVCAR-5 ovarian
# OVCAR-8 ovarian = system: OVCAR-8 ovarian
# PC-3 prostate = system: PC-3 prostate
# RPMI-8226 leukemia = system: RPMI-8226 leukemia
# RXF 393 renal = system: RXF 393 renal
# SF-268 CNS = system: SF-268 CNS
# SF-295 CNS = system: SF-295 CNS
# SF-539 CNS = system: SF-539 CNS
# SK-MEL-2 melanoma = system: SK-MEL-2 melanoma
# SK-MEL-28 melanoma = system: SK-MEL-28 melanoma
# SK-MEL-5 melanoma = system: SK-MEL-5 melanoma
# SK-OV-3 ovarian = system: SK-OV-3 ovarian
# SN12C renal = system: SN12C renal
# SNB-19 CNS = system: SNB-19 CNS
# SNB-75 CNS = system: SNB-75 CNS
# SR leukemia = system: SR leukemia
# SW-620 colon = system: SW-620 colon
# T-47D breast = system: T-47D breast
# TK-10 renal = system: TK-10 renal
# U251 CNS = system: U251 CNS
# UACC-257 melanoma = system: UACC-257 melanoma
# UACC-62 melanoma = system: UACC-62 melanoma
# UO-31 renal = system: UO-31 renal
compound,measurement,setting,value
O=c1oc2ccc(Br)cc2c(=O)n1-c1ccc(Br)cc1F,GI50,786-0 renal,2.06 µM
same,TGI,786-0 renal,4.91 µM
same,GI50,A498 renal,0.245 µM
same,TGI,A498 renal,0.774 µM
same,GI50,A549 NSCLC,2.05 µM
same,TGI,A549 NSCLC,> 35.5 µM
same,GI50,ACHN renal,0.933 µM
same,TGI,ACHN renal,8.46 µM
same,GI50,BT-549 breast,0.452 µM
same,TGI,BT-549 breast,2.2 µM
same,GI50,CAKI-1 renal,0.507 µM
same,TGI,CAKI-1 renal,3.93 µM
same,GI50,CCRF-CEM leukemia,1 µM
same,TGI,CCRF-CEM leukemia,4.95 µM
same,GI50,COLO 205 colon,3.72 µM
same,TGI,COLO 205 colon,14 µM
same,GI50,DU-145 prostate,1.14 µM
same,TGI,DU-145 prostate,21.4 µM
same,GI50,EKVX NSCLC,1.51 µM
same,TGI,EKVX NSCLC,8.24 µM
same,GI50,HCC-2998 colon,2.47 µM
same,TGI,HCC-2998 colon,8.04 µM
same,GI50,HCT-116 colon,0.555 µM
same,TGI,HCT-116 colon,2.1 µM
same,GI50,HCT-15 colon,0.733 µM
same,TGI,HCT-15 colon,7.02 µM
same,GI50,HL-60(TB) leukemia,0.538 µM
same,TGI,HL-60(TB) leukemia,2.53 µM
same,GI50,HOP-62 NSCLC,1.35 µM
same,TGI,HOP-62 NSCLC,4.79 µM
same,GI50,HOP-92 NSCLC,0.191 µM
same,TGI,HOP-92 NSCLC,0.683 µM
same,GI50,HS 578T breast,0.38 µM
same,TGI,HS 578T breast,3.79 µM
same,GI50,HT29 colon,3.09 µM
same,TGI,HT29 colon,12.7 µM
same,GI50,IGROV1 ovarian,0.337 µM
same,TGI,IGROV1 ovarian,11.9 µM
same,GI50,K-562 leukemia,0.465 µM
same,TGI,K-562 leukemia,> 100 µM
same,GI50,KM12 colon,2.06 µM
same,TGI,KM12 colon,4.93 µM
same,GI50,LOX IMVI melanoma,0.469 µM
same,TGI,LOX IMVI melanoma,2.54 µM
same,GI50,M14 melanoma,0.816 µM
same,TGI,M14 melanoma,3.59 µM
same,GI50,MALME-3M melanoma,0.436 µM
same,TGI,MALME-3M melanoma,2.55 µM
same,GI50,MCF7 breast,1.07 µM
same,TGI,MCF7 breast,8.17 µM
same,GI50,MDA-MB-231 breast,0.551 µM
same,TGI,MDA-MB-231 breast,4.81 µM
same,GI50,MDA-MB-435,0.64 µM
same,TGI,MDA-MB-435,8.87 µM
same,GI50,MOLT-4 leukemia,1.31 µM
same,TGI,MOLT-4 leukemia,4.16 µM
same,GI50,NCI-H226 lung,1.26 µM
same,TGI,NCI-H226 lung,4.72 µM
same,GI50,NCI-H23 lung,0.369 µM
same,TGI,NCI-H23 lung,2.65 µM
same,GI50,NCI-H460 lung,0.511 µM
same,TGI,NCI-H460 lung,11.1 µM
same,GI50,NCI-H522 lung,0.351 µM
same,TGI,NCI-H522 lung,2.92 µM
same,GI50,NCI/ADR-RES ovarian,0.553 µM
same,TGI,NCI/ADR-RES ovarian,4.33 µM
same,GI50,OVCAR-3 ovarian,0.477 µM
same,TGI,OVCAR-3 ovarian,6.62 µM
same,GI50,OVCAR-4 ovarian,0.539 µM
same,TGI,OVCAR-4 ovarian,> 100 µM
same,GI50,OVCAR-5 ovarian,3.1 µM
same,TGI,OVCAR-5 ovarian,48.1 µM
same,GI50,OVCAR-8 ovarian,1.22 µM
same,TGI,OVCAR-8 ovarian,9.14 µM
same,GI50,PC-3 prostate,0.864 µM
same,TGI,PC-3 prostate,6.77 µM
same,GI50,RPMI-8226 leukemia,0.264 µM
same,TGI,RPMI-8226 leukemia,1.06 µM
same,GI50,RXF 393 renal,0.68 µM
same,TGI,RXF 393 renal,3.73 µM
same,GI50,SF-268 CNS,0.688 µM
same,TGI,SF-268 CNS,7.1 µM
same,GI50,SF-295 CNS,1.49 µM
same,TGI,SF-295 CNS,3.29 µM
same,GI50,SF-539 CNS,0.501 µM
same,TGI,SF-539 CNS,3.54 µM
same,GI50,SK-MEL-2 melanoma,0.371 µM
same,TGI,SK-MEL-2 melanoma,1.88 µM
same,GI50,SK-MEL-28 melanoma,0.392 µM
same,TGI,SK-MEL-28 melanoma,1.95 µM
same,GI50,SK-MEL-5 melanoma,0.269 µM
same,TGI,SK-MEL-5 melanoma,0.853 µM
same,GI50,SK-OV-3 ovarian,0.56 µM
same,TGI,SK-OV-3 ovarian,4.97 µM
same,GI50,SN12C renal,0.458 µM
same,TGI,SN12C renal,3.62 µM
same,GI50,SNB-19 CNS,0.378 µM
same,TGI,SNB-19 CNS,46.7 µM
same,GI50,SNB-75 CNS,0.289 µM
same,TGI,SNB-75 CNS,2.45 µM
same,GI50,SR leukemia,0.712 µM
same,TGI,SR leukemia,6.88 µM
same,GI50,SW-620 colon,1.22 µM
same,TGI,SW-620 colon,11.2 µM
same,GI50,T-47D breast,0.341 µM
same,TGI,T-47D breast,3.84 µM
same,GI50,TK-10 renal,2.86 µM
same,TGI,TK-10 renal,12.8 µM
same,GI50,U251 CNS,0.725 µM
same,TGI,U251 CNS,9.82 µM
same,GI50,UACC-257 melanoma,0.64 µM
same,TGI,UACC-257 melanoma,3.76 µM
same,GI50,UACC-62 melanoma,0.223 µM
same,TGI,UACC-62 melanoma,0.772 µM
same,GI50,UO-31 renal,0.442 µM
same,TGI,UO-31 renal,2.48 µM
Cn1ccnc1Sc1ccc(/C=N\NC(=O)c2cccc(F)c2)cc1[N+](=O)[O-],TGI,786-0 renal,> 100 µM
same,TGI,A498 renal,65.7 µM
same,TGI,A549 NSCLC,> 100 µM
same,TGI,ACHN renal,> 100 µM
same,TGI,BT-549 breast,> 100 µM
same,TGI,CAKI-1 renal,> 100 µM
same,TGI,CCRF-CEM leukemia,> 100 µM
same,TGI,COLO 205 colon,> 100 µM
same,TGI,DU-145 prostate,> 100 µM
same,TGI,EKVX NSCLC,> 100 µM
same,TGI,HCC-2998 colon,> 100 µM
same,TGI,HCT-116 colon,> 100 µM
same,TGI,HCT-15 colon,> 100 µM
same,TGI,HL-60(TB) leukemia,> 100 µM
same,TGI,HOP-62 NSCLC,> 100 µM
same,TGI,HOP-92 NSCLC,63.7 µM
same,TGI,HS 578T breast,70.6 µM
same,TGI,HT29 colon,> 100 µM
same,TGI,IGROV1 ovarian,53 µM
same,TGI,K-562 leukemia,> 100 µM
same,TGI,KM12 colon,> 100 µM
same,TGI,LOX IMVI melanoma,> 100 µM
same,TGI,M14 melanoma,> 100 µM
same,TGI,MALME-3M melanoma,> 100 µM
same,TGI,MCF7 breast,91.5 µM
same,TGI,MDA-MB-231 breast,> 100 µM
same,TGI,MDA-MB-435,> 100 µM
same,TGI,MOLT-4 leukemia,> 100 µM
same,TGI,NCI-H226 lung,> 100 µM
same,TGI,NCI-H23 lung,> 100 µM
same,TGI,NCI-H460 lung,> 100 µM
same,TGI,NCI-H522 lung,72.1 µM
same,TGI,NCI/ADR-RES ovarian,> 100 µM
same,TGI,OVCAR-3 ovarian,> 100 µM
same,TGI,OVCAR-4 ovarian,> 100 µM
same,TGI,OVCAR-5 ovarian,> 100 µM
same,TGI,OVCAR-8 ovarian,63.5 µM
same,TGI,PC-3 prostate,63.2 µM
same,TGI,RPMI-8226 leukemia,> 100 µM
same,TGI,RXF 393 renal,94.3 µM
same,TGI,SF-268 CNS,53.9 µM
same,TGI,SF-295 CNS,> 100 µM
same,TGI,SF-539 CNS,66.4 µM
same,TGI,SK-MEL-2 melanoma,> 100 µM
same,TGI,SK-MEL-28 melanoma,> 100 µM
same,TGI,SK-MEL-5 melanoma,> 100 µM
same,TGI,SK-OV-3 ovarian,89.8 µM
same,TGI,SN12C renal,> 100 µM
same,TGI,SNB-19 CNS,77.1 µM
same,TGI,SNB-75 CNS,59.5 µM
same,TGI,SR leukemia,> 100 µM
same,TGI,SW-620 colon,> 100 µM
same,TGI,T-47D breast,> 100 µM
same,TGI,TK-10 renal,> 100 µM
same,TGI,U251 CNS,43.7 µM
same,TGI,UACC-257 melanoma,> 100 µM
same,TGI,UACC-62 melanoma,> 100 µM
same,TGI,UO-31 renal,> 100 µM
